Columns and labels:
Thromboxane A2 receptor = target: T1, Thromboxane A2 receptor (Rattus norvegicus, UniProt P34978); test: In vitro thromboxane A2 antagonistic activity on U-46619 (0.1 uM) induced contraction of rat aorta; format: functional, tissue-based
T1 sequence (P34978 whole entry): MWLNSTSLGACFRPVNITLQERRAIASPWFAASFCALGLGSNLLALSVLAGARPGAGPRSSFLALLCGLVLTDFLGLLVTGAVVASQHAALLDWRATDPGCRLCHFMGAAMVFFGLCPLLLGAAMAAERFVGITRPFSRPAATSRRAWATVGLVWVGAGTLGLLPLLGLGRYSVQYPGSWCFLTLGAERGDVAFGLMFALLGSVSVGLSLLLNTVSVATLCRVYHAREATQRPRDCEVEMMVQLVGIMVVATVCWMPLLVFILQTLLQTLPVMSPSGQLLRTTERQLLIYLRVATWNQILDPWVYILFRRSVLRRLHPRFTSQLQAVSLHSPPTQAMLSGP

Homo sapiens = species on record: Homo sapiens; test: In vitro inhibitory activity for the aggregation of human platelets induced by U-46,619 (1 uM) was determined; format: functional
Cavia porcellus [1] = species on record: Cavia porcellus; test: In vitro inhibitory activity for the aggregation of guinea pig platelets induced by U-46,619 (4 uM) was determined; format: functional
Cavia porcellus [2] = test: Ex vivo inhibitory activity (0.3 mg/kg p.o.) on the aggregation of guinea pig platelets induced by arachidonic acid (100 uM); format: functional
Cavia porcellus [3] = test: Extra vivo inhibitory activity of compound (0.3 mg/kg p.o.) on the aggregation of guinea pig platelets induced by U-46619 (1 uM); format: functional
Cavia porcellus [4] = species on record: Cavia porcellus; test: Extra vivo inhibitory activity for the aggregation of guinea pig platelets induced by U-46,619 (4 uM) was determined; format: functional, organism-based
Cavia porcellus [5] = species on record: Cavia porcellus; test: Extra vivo inhibitory activity of compound for the aggregation of guinea pig platelets induced by U-46,619 (4 uM) was determined; format: functional, organism-based

SMILES | IC50 (Thromboxane A2 receptor) [nM] | Inhibition (Cavia porcellus [2]) [%] | Inhibition (Cavia porcellus [3]) [%] | also measured
O=C(O)c1ccc2c(c1)CC(CCCCNS(=O)(=O)c1ccc(Cl)cc1)C2 (configuration not stated) | > 479 |  |  | 
O=C(O)CCCCc1ccc2c(c1)CC(CNS(=O)(=O)c1ccc(Cl)cc1)C2 (configuration not stated) | 35.5 |  |  | 
O=C(O)Cc1ccc2c(c1)CC(CNS(=O)(=O)C1CCCCC1)C2 (configuration not stated) | 1200 |  |  | 
O=C(O)Cc1ccc2c(c1)CC(CNS(=O)(=O)c1ccc(Cl)cc1)O2 (configuration not stated) | 141 |  |  | 
O=C([O-])CCc1ccc2c(c1)CC(CNS(=O)(=O)c1ccc(Cl)cc1)C2.[Na+] (configuration not stated) | 14.8 | 57 | 98 | 
O=C([O-])Cc1ccc2c(c1)CC(CCNS(=O)(=O)c1ccc(Cl)cc1)C2.[Na+] (configuration not stated) | 31.6 | 83 | 96 | 
O=C(O)Cc1ccc2c(c1)CC(NS(=O)(=O)c1ccc(Cl)cc1)C2 (configuration not stated) | 2.19 |  |  | 
O=C([O-])c1ccc2c(c1)CC(CNS(=O)(=O)c1ccc(Cl)cc1)C2.[Na+] (configuration not stated) | 26.3 | 29 | 58 | 
O=C([O-])CCCc1ccc2c(c1)CC(CNS(=O)(=O)c1ccc(Cl)cc1)C2.[Na+] (configuration not stated) | 38.9 | 100 | 100 | ED50 (Cavia porcellus [5]): 0.083 mg/kg; IC50 (Homo sapiens): 2690 nM; IC50 (Cavia porcellus [1]): 230 nM
O=C(O)c1ccc2c(c1)CC(CCNS(=O)(=O)c1ccc(Cl)cc1)C2 (configuration not stated) | 66.1 |  |  | 
O=C(O)c1ccc2c(c1)CC(CCCNS(=O)(=O)c1ccc(Cl)cc1)C2 (configuration not stated) | 85.1 |  |  | 
CCCCCS(=O)(=O)NCC1Cc2ccc(CC(=O)O)cc2C1 (configuration not stated) | 1400 |  |  | 
O=C(O)Cc1ccc(CCNS(=O)(=O)c2ccc(Cl)cc2)cc1 [DALTROBAN] |  | 25 | 55 | IC50 (Homo sapiens): 370 nM; IC50 (Cavia porcellus [1]): 500 nM; ED50 (Cavia porcellus [4]): 0.53 mg/kg

Continued, in another order:

IC50 (Thromboxane A2 receptor) [nM] | SMILES | Inhibition (Cavia porcellus [2]) [%] | Inhibition (Cavia porcellus [3]) [%] | also measured
513 | O=C(O)Cc1ccc2c(c1)CC(CCCNS(=O)(=O)c1ccc(Cl)cc1)C2 (configuration not stated) |  |  | 
977 | O=C(O)Cc1ccc2c(c1)CC(CCCCNS(=O)(=O)c1ccc(Cl)cc1)C2 (configuration not stated) |  |  | 
22.4 | O=C([O-])Cc1ccc2c(c1)CC(CNS(=O)(=O)c1ccc3ccccc3c1)C2.[Na+] (configuration not stated) | 100 | 100 | IC50 (Homo sapiens): 290 nM; IC50 (Cavia porcellus [1]): 310 nM; ED50 (Cavia porcellus [4]): 0.13 mg/kg
5900 | O=C(O)Cc1ccc2c(c1)CC(CNS(=O)(=O)Cc1ccccc1)C2 (configuration not stated) |  |  | 
1900 | O=C(O)Cc1ccc2c(c1)CC(CNS(=O)(=O)c1cccnc1)C2 (configuration not stated) |  |  | 
85.1 | O=C(O)Cc1ccc2c(c1)CC(CNS(=O)(=O)c1cccs1)C2 (configuration not stated) |  |  | 
3.02 | O=C([O-])Cc1ccc2c(c1)CC(CNS(=O)(=O)c1ccc(Cl)cc1)C2.[Na+] (configuration not stated) | 100 | 100 | ED50 (Cavia porcellus [5]): 0.063 mg/kg; IC50 (Homo sapiens): 280 nM; IC50 (Cavia porcellus [1]): 270 nM
12.9 | O=C(O)Cc1ccc2c(c1)CC(CNS(=O)(=O)c1ccccc1)C2 (configuration not stated) |  |  | 
295 | O=C(O)Cc1ccc2c(c1)CC(CNS(=O)(=O)c1cccc3ccccc13)C2 (configuration not stated) |  |  | 
